According to patent US20200261418A1, “HDAC INHIBITOR IN COMBINATION WITH IMMUNE CHECKPOINT MODULATOR FOR CANCER THERAPY” (4SC AG, priority 2017, published 2020):
Like-named read-outs stand apart in the source and are kept apart here.

Assays:
[1] = system: C38 tumor fragments; assay: Preclinical murine in vivo tumor model, C38; design: species or system female C57Bl/6 mice; details: C38 model (FIG. 1); anti-PD1 10 mg/kg IP; 4SC-202 at 20 mg/kg PO alone or combined
Protocol: (§1) In vivo murine tumor models were conducted with a combination of 4SC-202 and murine anti-PD-1 and anti-PD-L1 antibodies, respectively. 1×10^6 CT26 cells or 30-50 mg C38 tumor fragments (both […] colon carcinoma cell lines) were subcutaneous implantation into the right flank of female C57Bl/6 (C38 tumor fragments) or Balb/c (CT26 cells) mice, respectively, at day 0 of the experiment.
Protocol C38: At D10, when tumors reached a mean volume of 142±27 mm^3, 160 mice out of 224, were randomized according to their individual tumor volume into 8 groups of 20 mice each. […]
(§2) Monitoring of mice body weights and tumor volume twice a week. […] Tumor width and length were measured using a digital caliper twice a week and estimated tumor volumes were calculated from measured tumor length and width using the formula Estimated tumor volume=width^2×length/2. […]

[2] = system: CT26 cells; assay: Preclinical murine in vivo tumor model, CT26; design: species or system female Balb/c mice; details: CT26 model (FIG. 2); anti-PD-L1 10 mg/kg IP; 4SC-202 at 20 mg/kg PO alone or combined
Protocol: as §1
Protocol CT26: At D7, when tumors reached a mean volume of 73±21 mm^3, 80 mice out of 104, were randomized according to their individual tumor volume into 4 groups of 20 mice each. […]
as §2

[3] = Food effect dog study, plasma pharmacokinetics; type: in vivo, dogs (male Beagle); details: approx. 60 mg/kg oral tablets; for AUC: male, Beagle, dog, plasma, po, 60 mg/kg, three dogs, read-out: AUC geometric mean
Protocol: A pharmacokinetic profile for 4SC-202 was determined in an animal study comprising three dogs (male Beagle). To allow for better comparison of the fasted/fed values and eliminate inter-subject variability, each dog first received a first dose of 4SC-202 in the fasted state, and after a wash-out phase of one week, received another dose of 4SC-202 in the fed state. After each respective dose, the plasma pK of 4SC-202 was determined
Before the first dosing, the dogs were fasted overnight and food was returned after the 4 h post-dose blood sampling collections. On each dosing day, the dogs received a single intramuscular injection of freshly prepared Pentagastrin (6 μg/kg and 0.05 mL/kg) 30-33 min prior to oral treatment with approx. 60 mg/kg 4SC-202 (tablet as detailed herein below); for fed animals, these steps were omitted and the dogs received their usual meal approx. 30 min prior to dosing. The number of tablets (4SC-202 tosylate corresponding to 100 mg 4SC-202 free base per tablet) was rounded to the nearest whole tablet based on dose and animal pre-dose body weight. Immediately after dosing the animals received 20 mL of water after oral gavage or were offered 20 mL of water to assist swallowing of the tablets.
Blood samples (1 ml per sample in K2EDTA as anticoagulant) were collected by venipuncture of a peripheral vein and placed on wet ice immediately after collection until centrifugation as 2000*g for 10 min at 2-8° C. to isolate plasma. […]
The concentration of 4SC-202 (free base) in plasma samples was determined by first precipitating the samples with three volume equivalents of acetonitrile containing the internal standard. […]
For the preparation of calibration samples, 4SC-202 tosylate salt was dissolved in dimethylsulfoxide to a concentration of 1.00 mg/mL free base. […] The concentrations were calculated under consideration of purity and salt factor where applicable. All concentrations are expressed as those of the free base. […] The concentration was calculated under consideration of purity and salt factor. […]

[4] = system: heavily pre-treated patients with different types of blood cancer; details: cited from earlier work
[5] = Handling of 4SC-202 tosylate calibration solutions (light stability); type: physicochemical; details: solutions in dimethylsulfoxide and dimethylsulfoxide/acetonitrile
Protocol: For the preparation of calibration samples, 4SC-202 tosylate salt was dissolved in dimethylsulfoxide to a concentration of 1.00 mg/mL free base. For the preparation of QC samples, a second solution with a concentration of 1.00 mg/mL free base was used. Working solutions were prepared by serial dilutions in a mixture of dimethylsulfoxide/acetonitrile (50/50, v/v) to concentrations 50 times higher than the corresponding concentrations in matrix. The concentrations were calculated under consideration of purity and salt factor where applicable. All concentrations are expressed as those of the free base. […] The concentrations of the calibration are (ng/mL): 1.00, 2.00, 5.00, 20.00, 100, 500, 750, 1000. The concentrations of the QC are (ng/mL): 13.00, 20.00, 750 For preparation of the CAL and QC, the matrix was fortified with the working solutions using a ratio of 98/2 (v/v). For the preparation of the internal standard solution, 4SC-201-d6 mesylate salt was dissolved in dimethylsulfoxide to a concentration of 1.00 mg/mL of the free base. Further dilutions to a final concentration of 100 ng/mL were done in acetonitrile. The concentration was calculated under consideration of purity and salt factor.

SMILES	anti-tumor activity compared to mice treated with vehicle [1]	anti-tumor activity compared to mice treated with vehicle [2]	AUC increase of the fed state over the fasted state ([3]; dogs)	AUC ([3]; fasted)	AUC ([3]; fed)	tolerability (adverse events) ([4]; 24 heavily pre-treated patients, few and/or manageable adverse events)	disease control, share of patients ([4]; 24 patients)	long-term stabilization, share of patients ([4]; 24 patients)	complete remission, duration ([4]; one complete remission among 24 patients)	partial responder, duration ([4]; one partial responder among 24 patients)	light stability of solutions [5]
Cn1cc(-c2ccc(S(=O)(=O)n3ccc(/C=C/C(=O)Nc4ccccc4N)c3)cc2)cn1 [Compound 4SC-202, (E)-N-(2-aminophenyl)-3-(1-((4-(1-methyl-1H-pyrazol-4-yl)phenyl)sulfonyl)-1H-pyrrol-3-yl)acrylamide]	increase of the antitumor activity	increase of the antitumor activity	about 3.5 fold	3980 ng·h/mL	13900 ng·h/mL	well tolerated	83%	50%	28 months	8 months	–
Cc1ccc(S(=O)(=O)O)cc1.Cn1cc(-c2ccc(S(=O)(=O)n3ccc(/C=C/C(=O)Nc4ccccc4N)c3)cc2)cn1 [4SC-202 tosylate salt]	–	–	–	–	–	–	–	–	–	–	light instability
